According to patent US20250241901A1, “ACTIVATION OF MNRR1 / CHCHD2 AS A THERAPEUTIC TARGET FOR MITOCHONDRIA ASSOCIATED DISORDERS” (Wayne State University, priority 2024, published 2025):

Assays:
[1] = test system: TNF transcription; assay: TNF transcript levels in LPS-treated HTR8 cells (real-time PCR); type: cell-based, human
Method: FIGS. 1A-1D. Nitazoxanide's anti-inflammatory effects are via transcriptional activation of MNRR1. (FIG. 1A) Results of a screen of ˜2400 FDA-approved drugs and natural compounds identified to transcriptionally activate (>1), inhibit (<1), or not affect (=1) MNRR1. Each circle represents one drug and the MNRR1 activator (nitazoxanide (N)) has been highlighted in green. (FIG. 1B) Equal numbers of HTR cells overexpressing the MNRR1-luciferase reporter were plated on a 96 well plate and treated with increasing amounts of nitazoxanide or vehicle (DMSO) for 24 h. EC50 was calculated using the activation of MNRR1 reporter relative to vehicle treated cells using the Quest Graph^TM EC50 Calculator. (FIG. 1C) TNF transcript levels were measured in human placental cells. Actin was used as a housekeeping gene for normalization. Abbreviations: WT, MNRR1-WT; MNRR1-KO, knockout of MNRR1; C, control (water); LPS, lipopolysaccharide; N, nitazoxanide; KO+WT-MNRR1, knockout cells +MNRR1−WT overexpression. n=4 biological replicates; significance: *, p-value<0.05; ns is non-significant. […]
Real-time polymerase chain reaction: Total cellular RNA was extracted from mouse placental tissues or HTR8 cells by using a RNeasy Plus Mini Kit (Qiagen, Germantown, MD, USA), according to the manufacturer's instructions. […] Transcript levels were measured by real-time PCR by using SYBR green on an ABI 7500 system. […]

[2] = test system: MELAS patient fibroblasts; assay: Mitophagy and mitochondrial biogenesis markers in MELAS patient fibroblasts (immunoblot); type: cell-based, human; details: fibroblasts from three MELAS patients, 10 μM, 48 h
Method: FIGS. 8A-8D: MNRR1 activation using tizoxanide enhances mitochondrial function, mitophagy, and protects from LPS-induced inflammation in MELAS patient fibroblasts. FIG. 8A: Equal amounts of lysates from MELAS patient fibroblast (MF 1, 2, or 3) lysates treated with vehicle (DMSO) or tizoxanide (10 μM) for 48 h were separated on an SDS-PAGE gel and probed for LC3B, PGC1a, MNRR1, MTCO2, TOM20, and phospho-ubiquitin (S65) levels. GAPDH orTubulin was probed as a loading control. FIG. 8B: Oxygen consumption measured from MELAS patient fibroblasts treated with vehicle (DMSO) or tizoxanide (10 μM) for 48 h (n=4 biological replicates, mean±SE). FIG. 8C: Mitochondrial ATP rate measured in MELAS patient fibroblasts treated with vehicle (DMSO) or tizoxanide (10 μM) for 48 h (n=4 biological replicates, mean±SE). […]
Immunoblotting: Immunoblotting was performed as described previously. […] The clear supernatants were transferred to new tubes and quantified using the Bradford reagent with BSA as standard (BioRad, Hercules. CA). […] For detection after immunoblotting, the SuperSignal™ West Pico PLUS substrate (ThermoFisher, Waltham, MA) was used to generate chemiluminescence signal, which was detected with X-Ray film (RadTech, Vassar, MI).

Row | Compound | LPS-induced activation of TNF transcription ([1]; HTR8 cells, MNRR1-WT) | anti-inflammatory benefit (TNF transcript) in MNRR1 knockout cells ([1]; MNRR1 knockout cells) | mitochondrial biogenesis (PGC1α, MTCO2, TOM20 levels) [2] | mitophagy (LCB and pSer-65 ubiquitin levels) [2]
1 | CC(=O)Oc1ccccc1C(=O)Nc1ncc([N+](=O)[O-])s1 [nitazoxanide, Nitazoxanide] | reduced to control levels in an MNRR1-dependent fashion | no nitazoxanide-mediated benefit | – | –
2 | O=C(Nc1ncc([N+](=O)[O-])s1)c1ccccc1O [tizoxanide, Tizoxanide] | – | – | enhances | enhances
